Laboratory results from PubChem BioAssay (NCI).
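Growth conditions: 96-well plates. Treatment: test compound, 48 hours, 5 concentrations. Analysis: linear interpolation between bracketing concentrations; unreached endpoints set to highest concentration. TGI: concentration producing complete growth inhibition.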

Legend:
Test in all cases: NCI anticancer screen, dose series, 48 h
786-0 renal = system: 786-0 renal
A498 renal = system: A498 renal
A549 NSCLC = system: A549 NSCLC
ACHN renal = system: ACHN renal
BT-549 breast = system: BT-549 breast
CAKI-1 renal = system: CAKI-1 renal
CCRF-CEM leukemia = system: CCRF-CEM leukemia
COLO 205 colon = system: COLO 205 colon
DU-145 prostate = system: DU-145 prostate
EKVX NSCLC = system: EKVX NSCLC
HCC-2998 colon = system: HCC-2998 colon
HCT-116 colon = system: HCT-116 colon
HCT-15 colon = system: HCT-15 colon
HL-60(TB) leukemia = system: HL-60(TB) leukemia
HOP-62 NSCLC = system: HOP-62 NSCLC
HOP-92 NSCLC = system: HOP-92 NSCLC
HT29 colon = system: HT29 colon
IGROV1 ovarian = system: IGROV1 ovarian
K-562 leukemia = system: K-562 leukemia
KM12 colon = system: KM12 colon
LOX IMVI melanoma = system: LOX IMVI melanoma
M14 melanoma = system: M14 melanoma
MALME-3M melanoma = system: MALME-3M melanoma
MCF7 breast = system: MCF7 breast
MDA-MB-231 breast = system: MDA-MB-231 breast
MDA-MB-435 = system: MDA-MB-435
MDA-N = system: MDA-N
MOLT-4 leukemia = system: MOLT-4 leukemia
NCI-H226 lung = system: NCI-H226 lung
NCI-H23 lung = system: NCI-H23 lung
NCI-H460 lung = system: NCI-H460 lung
NCI-H522 lung = system: NCI-H522 lung
NCI/ADR-RES ovarian = system: NCI/ADR-RES ovarian
OVCAR-3 ovarian = system: OVCAR-3 ovarian
OVCAR-4 ovarian = system: OVCAR-4 ovarian
OVCAR-5 ovarian = system: OVCAR-5 ovarian
OVCAR-8 ovarian = system: OVCAR-8 ovarian
PC-3 prostate = system: PC-3 prostate
RPMI-8226 leukemia = system: RPMI-8226 leukemia
RXF 393 renal = system: RXF 393 renal
SF-295 CNS = system: SF-295 CNS
SK-MEL-2 melanoma = system: SK-MEL-2 melanoma
SK-MEL-28 melanoma = system: SK-MEL-28 melanoma
SK-MEL-5 melanoma = system: SK-MEL-5 melanoma
SK-OV-3 ovarian = system: SK-OV-3 ovarian
SN12C renal = system: SN12C renal
SNB-19 CNS = system: SNB-19 CNS
SNB-75 CNS = system: SNB-75 CNS
SR leukemia = system: SR leukemia
SW-620 colon = system: SW-620 colon
T-47D breast = system: T-47D breast
TK-10 renal = system: TK-10 renal
U251 CNS = system: U251 CNS
UACC-257 melanoma = system: UACC-257 melanoma
UACC-62 melanoma = system: UACC-62 melanoma
UO-31 renal = system: UO-31 renal
SF-268 CNS = system: SF-268 CNS
SF-539 CNS = system: SF-539 CNS
HS 578T breast = system: HS 578T breast

COc1cc(/C=C2\C(=O)N(c3cccc([N+](=O)[O-])c3)C(c3ccccc3)S2(=O)=O)cc(OC)c1OC (stereo not drawn)
TGI (786-0 renal): > 100 µM
TGI (A498 renal): > 100 µM
TGI (A549 NSCLC): > 100 µM
TGI (ACHN renal): > 100 µM
TGI (BT-549 breast): > 100 µM
TGI (CAKI-1 renal): > 100 µM
TGI (CCRF-CEM leukemia): > 100 µM
TGI (COLO 205 colon): > 100 µM
TGI (DU-145 prostate): > 100 µM
TGI (EKVX NSCLC): > 100 µM
TGI (HCC-2998 colon): > 100 µM
TGI (HCT-116 colon): > 100 µM
TGI (HCT-15 colon): > 100 µM
TGI (HL-60(TB) leukemia): > 100 µM
TGI (HOP-62 NSCLC): > 100 µM
TGI (HOP-92 NSCLC): > 100 µM
TGI (HT29 colon): > 100 µM
TGI (IGROV1 ovarian): > 100 µM
TGI (K-562 leukemia): > 100 µM
TGI (KM12 colon): > 100 µM
TGI (LOX IMVI melanoma): > 100 µM
TGI (M14 melanoma): > 100 µM
TGI (MALME-3M melanoma): > 100 µM
TGI (MCF7 breast): > 100 µM
TGI (MDA-MB-231 breast): > 100 µM
TGI (MDA-MB-435): > 100 µM
TGI (MDA-N): > 100 µM
TGI (MOLT-4 leukemia): > 100 µM
TGI (NCI-H226 lung): > 100 µM
TGI (NCI-H23 lung): > 100 µM
TGI (NCI-H460 lung): > 100 µM
TGI (NCI-H522 lung): > 100 µM
TGI (NCI/ADR-RES ovarian): > 100 µM
TGI (OVCAR-3 ovarian): > 100 µM
TGI (OVCAR-4 ovarian): > 100 µM
TGI (OVCAR-5 ovarian): > 100 µM
TGI (OVCAR-8 ovarian): > 100 µM
TGI (PC-3 prostate): > 100 µM
TGI (RPMI-8226 leukemia): > 100 µM
TGI (RXF 393 renal): > 100 µM
TGI (SF-295 CNS): > 100 µM
TGI (SK-MEL-2 melanoma): > 100 µM
TGI (SK-MEL-28 melanoma): > 100 µM
TGI (SK-MEL-5 melanoma): > 100 µM
TGI (SK-OV-3 ovarian): > 100 µM
TGI (SN12C renal): > 100 µM
TGI (SNB-19 CNS): > 100 µM
TGI (SNB-75 CNS): > 100 µM
TGI (SR leukemia): > 100 µM
TGI (SW-620 colon): > 100 µM
TGI (T-47D breast): > 100 µM
TGI (TK-10 renal): > 100 µM
TGI (U251 CNS): > 100 µM
TGI (UACC-257 melanoma): > 100 µM
TGI (UACC-62 melanoma): > 100 µM
TGI (UO-31 renal): > 100 µM

CSc1ncc2c(n1)C(C#N)C1Sc3ccccc3N1C2=O (stereo not drawn)
TGI (786-0 renal): > 100 µM
TGI (A498 renal): > 100 µM
TGI (A549 NSCLC): > 100 µM
TGI (ACHN renal): > 100 µM
TGI (BT-549 breast): > 100 µM
TGI (CAKI-1 renal): > 100 µM
TGI (COLO 205 colon): > 100 µM
TGI (DU-145 prostate): > 100 µM
TGI (EKVX NSCLC): > 100 µM
TGI (HCT-116 colon): > 100 µM
TGI (HCT-15 colon): > 100 µM
TGI (HOP-62 NSCLC): > 100 µM
TGI (HOP-92 NSCLC): > 100 µM
TGI (HT29 colon): > 100 µM
TGI (IGROV1 ovarian): > 100 µM
TGI (KM12 colon): > 100 µM
TGI (LOX IMVI melanoma): > 100 µM
TGI (M14 melanoma): > 100 µM
TGI (MALME-3M melanoma): > 100 µM
TGI (MDA-MB-231 breast): > 100 µM
TGI (MDA-MB-435): > 100 µM
TGI (MDA-N): > 100 µM
TGI (MOLT-4 leukemia): > 100 µM
TGI (NCI-H226 lung): > 100 µM
TGI (NCI-H23 lung): > 100 µM
TGI (NCI-H460 lung): > 100 µM
TGI (NCI-H522 lung): > 100 µM
TGI (NCI/ADR-RES ovarian): > 100 µM
TGI (OVCAR-3 ovarian): > 100 µM
TGI (OVCAR-4 ovarian): > 100 µM
TGI (OVCAR-5 ovarian): > 100 µM
TGI (OVCAR-8 ovarian): > 100 µM
TGI (RPMI-8226 leukemia): > 100 µM
TGI (RXF 393 renal): > 100 µM
TGI (SF-268 CNS): > 100 µM
TGI (SF-295 CNS): > 100 µM
TGI (SF-539 CNS): > 100 µM
TGI (SK-MEL-28 melanoma): > 100 µM
TGI (SK-MEL-5 melanoma): > 100 µM
TGI (SK-OV-3 ovarian): > 100 µM
TGI (SN12C renal): > 100 µM
TGI (SNB-19 CNS): > 100 µM
TGI (SNB-75 CNS): 66.3 µM
TGI (SW-620 colon): > 100 µM
TGI (T-47D breast): > 100 µM
TGI (TK-10 renal): > 100 µM
TGI (U251 CNS): > 100 µM
TGI (UACC-257 melanoma): > 100 µM
TGI (UO-31 renal): > 100 µM

c1ncn(C23C4C5C6C4C2C6C53)n1 (stereo not drawn)
TGI (786-0 renal): > 100 µM
TGI (A498 renal): > 100 µM
TGI (A549 NSCLC): > 100 µM
TGI (ACHN renal): > 100 µM
TGI (CCRF-CEM leukemia): > 100 µM
TGI (COLO 205 colon): > 100 µM
TGI (DU-145 prostate): > 100 µM
TGI (EKVX NSCLC): > 100 µM
TGI (HCC-2998 colon): > 100 µM
TGI (HCT-116 colon): > 100 µM
TGI (HCT-15 colon): > 100 µM
TGI (HL-60(TB) leukemia): > 100 µM
TGI (HOP-62 NSCLC): > 100 µM
TGI (HS 578T breast): > 100 µM
TGI (HT29 colon): > 100 µM
TGI (IGROV1 ovarian): > 100 µM
TGI (K-562 leukemia): > 100 µM
TGI (KM12 colon): > 100 µM
TGI (LOX IMVI melanoma): > 100 µM
TGI (MCF7 breast): > 100 µM
TGI (MDA-MB-231 breast): > 100 µM
TGI (MDA-MB-435): > 100 µM
TGI (MDA-N): > 100 µM
TGI (MOLT-4 leukemia): > 100 µM
TGI (NCI-H226 lung): > 100 µM
TGI (NCI-H23 lung): > 100 µM
TGI (NCI-H460 lung): > 100 µM
TGI (NCI-H522 lung): > 100 µM
TGI (NCI/ADR-RES ovarian): > 100 µM
TGI (OVCAR-5 ovarian): > 100 µM
TGI (OVCAR-8 ovarian): > 100 µM
TGI (PC-3 prostate): > 100 µM
TGI (RPMI-8226 leukemia): > 100 µM
TGI (SF-268 CNS): > 100 µM
TGI (SF-295 CNS): > 100 µM
TGI (SF-539 CNS): > 100 µM
TGI (SK-MEL-2 melanoma): > 100 µM
TGI (SK-MEL-28 melanoma): > 100 µM
TGI (SK-MEL-5 melanoma): > 100 µM
TGI (SK-OV-3 ovarian): > 100 µM
TGI (SN12C renal): > 100 µM
TGI (SNB-19 CNS): > 100 µM
TGI (SNB-75 CNS): > 100 µM
TGI (SR leukemia): > 100 µM
TGI (SW-620 colon): > 100 µM
TGI (T-47D breast): > 100 µM
TGI (TK-10 renal): > 100 µM
TGI (U251 CNS): > 100 µM
TGI (UACC-257 melanoma): > 100 µM

CN(C)CCNC(=O)Cn1ccc(=O)c2cc([N+](=O)[O-])ccc21
TGI (786-0 renal): > 100 µM
TGI (A498 renal): > 100 µM
TGI (A549 NSCLC): > 100 µM
TGI (ACHN renal): > 100 µM
TGI (CAKI-1 renal): > 100 µM
TGI (CCRF-CEM leukemia): > 100 µM
TGI (COLO 205 colon): > 100 µM
TGI (DU-145 prostate): > 100 µM
TGI (EKVX NSCLC): > 100 µM
TGI (HCC-2998 colon): > 100 µM
TGI (HCT-116 colon): > 100 µM
TGI (HCT-15 colon): > 100 µM
TGI (HL-60(TB) leukemia): > 100 µM
TGI (HOP-62 NSCLC): > 100 µM
TGI (HOP-92 NSCLC): > 100 µM
TGI (HS 578T breast): > 100 µM
TGI (HT29 colon): > 100 µM
TGI (IGROV1 ovarian): > 100 µM
TGI (K-562 leukemia): > 100 µM
TGI (KM12 colon): > 100 µM
TGI (LOX IMVI melanoma): > 100 µM
TGI (M14 melanoma): > 100 µM
TGI (MALME-3M melanoma): > 100 µM
TGI (MCF7 breast): > 100 µM
TGI (MDA-MB-435): > 100 µM
TGI (MDA-N): > 100 µM
TGI (MOLT-4 leukemia): > 100 µM
TGI (NCI-H226 lung): > 100 µM
TGI (NCI-H23 lung): > 100 µM
TGI (NCI-H460 lung): > 100 µM
TGI (NCI-H522 lung): > 100 µM
TGI (NCI/ADR-RES ovarian): > 100 µM
TGI (OVCAR-3 ovarian): > 100 µM
TGI (OVCAR-5 ovarian): > 100 µM
TGI (PC-3 prostate): > 100 µM
TGI (RPMI-8226 leukemia): > 100 µM
TGI (RXF 393 renal): > 100 µM
TGI (SF-268 CNS): > 100 µM
TGI (SF-295 CNS): > 100 µM
TGI (SF-539 CNS): > 100 µM
TGI (SK-MEL-2 melanoma): > 100 µM
TGI (SK-MEL-28 melanoma): > 100 µM
TGI (SK-MEL-5 melanoma): > 100 µM
TGI (SK-OV-3 ovarian): > 100 µM
TGI (SN12C renal): > 100 µM
TGI (SNB-19 CNS): > 100 µM
TGI (SR leukemia): > 100 µM
TGI (SW-620 colon): > 100 µM
TGI (T-47D breast): > 100 µM
TGI (TK-10 renal): > 100 µM
TGI (U251 CNS): > 100 µM
TGI (UACC-257 melanoma): > 100 µM
TGI (UACC-62 melanoma): > 100 µM
TGI (UO-31 renal): > 100 µM
